Reference: patent publication US20150038430A1, “THERAPEUTIC PEPTIDOMIMETIC MACROCYCLES” (AILERON Therapeutics, Inc., priority 2008, published 2015)
Numbered stars: 1 amine (or outer) side, 2 acyl side, 3 side chain; on linkers, the order of the positions; unused ones are H or OH. Bridge positions count the residues as written; N and C are the ends. Square brackets hold non-standard residues; d marks the D form. Peptide text beside a SMILES is read from it. ξ: configuration not given here. ξαMeNle(6-ylidene) = CC(CCCC=[*:3])(N[*:1])C(=O)[*:2]; Nle = CCCC[C@H](N)C(=O)O

Legend:
[1] = tested on: A375; type: cell-based, human; conditions: 24 h
Method: (§1) Cell viability assays shown in FIGS. 34-52 were performed according to a similar protocol. Cells were split at optimal cell density a day prior to the initiation of the study. The next day, cells were washed twice in serum-free Opti-MEM media and 4000 cells/well were added to each well in a final volume of […] Opti-MEM. For serum-free experiments, macrocycles were diluted from 2 mM stocks (100% DMSO) in sterile water to prepare 400 μM working solutions. A 40 μM solution was then generated by ten-fold dilution in assay buffer. The macrocycle and controls were then serially diluted two-fold in assay buffer in dosing plates to provide concentrations between 1.2 and 40 μM, respectively. For experiments in 2% human serum, macrocycles were diluted from 10 mM stocks (100% DMSO) in sterile water to prepare 1 mM working solutions. A 100 μM solution was generated by ten-fold dilution in assay buffer. The macrocycles and controls were then serially diluted two-fold in assay buffer in dosing plates to provide concentrations between 3 and 100 μM, respectively. 50 μl of each dilution was then added to the appropriate wells of the test plate to achieve final concentrations of the macrocycle between 0.6 to 20 μM (for serum free experiment) or 1.5 to 50 μM (for 2% serum experiment), respectively. Controls included wells without macrocycles containing the same concentration of DMSO as the macrocycle-containing wells, wells containing 0.1% Triton X-100, and wells containing no cells. Plates were incubated for 24 hours at 37° C. in a humidified 5% CO2 atmosphere. At the end of a 24 hr incubation period, a CellTiter-Glo Luminescent Cell Viability Assay was performed according to manufacturer's instructions (Promega, catalog #G7571) and the luminescence was measured using a BIO-TEK synergy HT Plate reader. Values were plotted as percent viable, i.e. as a percentage of the negative control value (derived from cells exposed to DMSO only). All assays were performed in duplicate.
(§2) The following tables summarize the EC50 values (μM) observed with peptidomimetic macrocycles of the invention in various cell lines: […]

[2] = tested on: MM1S; type: cell-based, human; conditions: 24 h
Method: as §1, §2

[3] = tested on: Jurkat; type: cell-based, human; conditions: 24 h
Method: as §1, §2

[4] = tested on: OVCAR8; type: cell-based, human; conditions: 24 h
Method: as §1, §2

[5] = tested on: SEMK2; type: cell-based, human; conditions: 24 h
Method: as §1, §2

[6] = tested on: Raji; type: cell-based, human; conditions: 24 h
Method: as §1, §2

[7] = tested on: MDA-MB231-Met; type: cell-based, human; conditions: 24 h
Method: as §1, §2

[8] = tested on: Molt-4; type: cell-based, human; conditions: 24 h
Method: as §1, §2

[9] = tested on: NCI-H82 (SCLC-MCL1+); type: cell-based, human; conditions: 24 h
Method: as §1, §2

[10] = tested on: RS4;11; type: cell-based, human; conditions: 24 h
Method: as §1, §2

[11] = target: Mcl-1; assay: Kd, μM | Mcl-1
Description: (§3) Table printed on a drawing sheet, Figure 27
Head of the field: Kd, μM | Mcl-1
(§4) First copying reader's note: The last row (ABT-737) is a small-molecule comparator; the three plots above the table are not copied.
Where the first naming reader finds the target: head: Kd, μM | Mcl-1

[12] = target: Bcl-xL (Homo sapiens, UniProt Q07817); assay: Kd, μM | Bcl-xL
Description: as §3
Head of the field: Kd, μM | Bcl-xL
Where the first naming reader finds the target: head: Kd, μM | Bcl-xL

[13] = target: Bcl-2; assay: Kd, μM | Bcl-2
Description: as §3
Head of the field: Kd, μM | Bcl-2
as §4
Where the first naming reader finds the target: head: Kd, μM | Bcl-2

[14] = tested on: DHL-6; type: cell-based, human; conditions: 24 h
Method: as §1, §2

[15] = tested on: PC3; type: cell-based, human; conditions: 24 h
Method: as §1, §2

Bcl-xL, sequence (Q07817 whole entry, looked up): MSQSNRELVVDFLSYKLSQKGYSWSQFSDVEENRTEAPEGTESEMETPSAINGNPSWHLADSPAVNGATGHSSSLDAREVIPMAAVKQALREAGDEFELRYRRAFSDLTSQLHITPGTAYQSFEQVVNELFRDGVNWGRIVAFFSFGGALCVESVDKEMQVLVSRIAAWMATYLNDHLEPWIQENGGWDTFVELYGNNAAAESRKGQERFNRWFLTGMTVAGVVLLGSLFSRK

Row | SMILES | EC50 [1] [µM] | EC50 [2] [µM] | EC50 [3] [µM] | EC50 [4] [µM] | EC50 [5] [µM] | EC50 [6] [µM] | EC50 [7] [µM] | EC50 [8] [µM] | EC50 [9] [µM] | EC50 [10] [µM] | Kd [11] [µM] | Kd [12] [µM] | Kd [13] [µM] | EC50 [14] [µM] | EC50 [15] [µM]
1 | CCCC[C@H](NC(=O)C1(C)CCCC=CCCCC(C)(NC(=O)[C@H](C)NC(=O)[C@H](CC(C)C)NC(=O)[C@H](Cc2c[nH]cn2)NC(=O)[C@H](CCCNC(=N)N)NC(=O)[C@H](C)NC(=O)[C@@H](NC(=O)[C@H](CC(N)=O)NC(=O)[C@H](CCCNC(=N)N)NC(=O)[C@@H](NC(=O)[C@@H](NC(=O)[C@H](CC(=O)O)NC(C)=O)[C@@H](C)CC)[C@@H](C)CC)[C@@H](C)CC)C(=O)N[C@@H](C(C)C)C(=O)N[C@@H](CCC(=O)O)C(=O)N[C@@H](CC(=O)O)C(=O)N1)C(=O)N[C@@H](CC(=O)O)C(=O)N[C@@H](CCCNC(=N)N)C(=O)N[C@@H](CO)C(=O)N[C@H](C(N)=O)[C@@H](C)CC (some centres unmarked) [SP-2] (Ac-DIIRNIARHLA[ξαMeNle(6-ylidene)]VED[ξαMeNle(6-ylidene)][Nle]DRSI-NH2; staple 12-16) | > 20 | > 20 | > 20 | > 20 | > 20 | > 20 | > 20 | > 20 | > 20 | > 20 | > 10 | > 10 | > 10 |  | 
2 | CCCC[C@H](NC(=O)[C@H](CO)NC(=O)[C@H](CC(=O)O)NC(=O)CNC(=O)[C@@H](NC(=O)[C@H](CCC(N)=O)NC(=O)[C@H](C)NC(=O)[C@H](CC(C)C)NC(=O)[C@H](Cc1c[nH]cn1)NC(=O)[C@H](CCCNC(=N)N)NC(=O)[C@H](C)NC(=O)[C@@H](NC(=O)[C@H](CC(N)=O)NC(=O)[C@H](CCCNC(=N)N)NC(=O)[C@@H](NC(=O)[C@@H](NC(=O)[C@H](CC(=O)O)NC(C)=O)[C@@H](C)CC)[C@@H](C)CC)[C@@H](C)CC)C(C)C)C(=O)N[C@@H](CC(=O)O)C(=O)N[C@@H](CCCNC(=N)N)C(=O)N[C@@H](CO)C(=O)N[C@H](C(N)=O)[C@@H](C)CC [SP-3] (HELM PEPTIDE1{[ac].D.I.I.R.N.I.A.R.H.L.A.Q.V.G.D.S.[Nle].D.R.S.I.[am]}$$$$V2.0) |  | > 20 | > 20 |  | > 20 | > 20 |  | > 20 |  | > 20 | 0.12 | 0.4 | > 10 | > 20 | 
3 | CC[C@H](C)[C@H](NC(C)=O)C(=O)N[C@@H](Cc1c[nH]c2ccccc12)C(=O)N[C@H](C(=O)N[C@@H](C)C(=O)N[C@@H](CCC(N)=O)C(=O)N[C@@H](CCC(=O)O)C(=O)N[C@@H](CC(C)C)C(=O)N[C@@H](CCCNC(=N)N)C(=O)NC1(C)CCCC=CCCCC(C)(C(=O)N[C@@H](Cc2ccccc2)C(=O)N[C@@H](CC(N)=O)C(=O)N[C@@H](C)C(=O)N[C@@H](Cc2ccc(O)cc2)C(=O)N[C@@H](Cc2ccc(O)cc2)C(=O)N[C@@H](C)C(=O)N[C@@H](CCCNC(=N)N)C(=O)N[C@@H](CCCNC(=N)N)C(N)=O)NC(=O)[C@H](CC(=O)O)NC(=O)[C@H](CCC(=O)O)NC(=O)[C@H]([C@@H](C)CC)NC1=O)[C@@H](C)CC (some centres unmarked) [SP-5] (Ac-IWIAQELR[ξαMeNle(6-ylidene)]IED[ξαMeNle(6-ylidene)]FNAYYARR-NH2; staple 9-13) |  |  |  |  |  |  |  |  |  |  | > 10 | > 10 | > 10 |  | 
4 | CC[C@H](C)[C@H](NC(C)=O)C(=O)N[C@@H](Cc1c[nH]c2ccccc12)C(=O)N[C@H](C(=O)N[C@@H](C)C(=O)N[C@@H](CCC(N)=O)C(=O)N[C@@H](C)C(=O)N[C@@H](CC(C)C)C(=O)N[C@@H](CCCNC(=N)N)C(=O)NC1(C)CCCC=CCCCC(C)(C(=O)N[C@@H](Cc2ccccc2)C(=O)N[C@@H](CC(N)=O)C(=O)N[C@@H](C)C(=O)N[C@@H](Cc2ccc(O)cc2)C(=O)N[C@@H](Cc2ccc(O)cc2)C(=O)N[C@@H](C)C(=O)N[C@@H](CCCNC(=N)N)C(=O)N[C@@H](CCCNC(=N)N)C(N)=O)NC(=O)[C@H](CC(=O)O)NC(=O)CNC(=O)[C@H]([C@@H](C)CC)NC1=O)[C@@H](C)CC (some centres unmarked) [SP-11] (Ac-IWIAQALR[ξαMeNle(6-ylidene)]IGD[ξαMeNle(6-ylidene)]FNAYYARR-NH2; staple 9-13) | 4.3 | 1.9 | 0.9 | 3.2 | 2.6 | 2.7 | 2 | 1.6 | 1.2 | 3.7 | < 0.1 | 0.25 | 2.8 | 0.9 | 4.6
